From patent publication US20100292255A1, “Therapeutic Compounds and Their Use in Treating Diseases and Disorders” (Myriad Pharmaceuticals, Inc., priority 2007, published 2010)

What follows are compounds tested on T1, purified human Hsp90 (assay: Hsp90 binding assay: displacement of BODIPY-labeled geldanamycin measured by fluorescence polarization). Details: 5 μM compound; BODIPY-GM 10 nM, Hsp90 30 nM, overnight at room temperature.
T1 construct: purified human Hsp90 (Stressgen, SPP-770)
Method in brief: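 Purified human Hsp90 at 30 nM and 10 nM BODIPY-GM tracer were incubated overnight at room temperature with compound in 2% DMSO. The buffer was 20 mM HEPES-KOH pH 7.3, 50 mM KCl, 5 mM MgCl2, 20 mM Na2MoO4, 2 mM DTT. Background-subtracted mP values read at 485/530 nm were normalized to DMSO wells to give % inhibition.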

Row | Structure (SMILES) | GM displacement from purified Hsp90 measured by FP Inhibition by 5 μM compd. (%)
1 | Nc1ncn(CCC2CCN(C=O)CC2)c2nc(Sc3cc4c(cc3Br)CCC4)nc1-2 [compound 85] | 35.0
2 | Nc1ncn(CCC2CCN(C=O)CC2)c2nc(Sc3cc4c(cc3Br)C(=O)CC4)nc1-2 [compound 87, 4-(2-{6-Amino-8-[(6-bromo-1-oxo-2,3-dihydro-1H-inden-5-yl)thio]-3H-purin-3-yl}ethyl)piperidine-l-carbaldehyde] | 20.0
3 | Nc1ncn(CCC2CCN(C(=O)CO)CC2)c2nc(Sc3cc4c(cc3Br)OCCO4)nc1-2 [compound 91, 2-[4-(2-{6-Amino-8-[(7-bromo-2,3-dihydro-1,4-benzodioxin-6-yl)thio]-3H-purin-3-yl}ethyl)piperidin-1-yl]-2-oxoethanol] | 32.0
4 | CC(C)(O)C(=O)N1CCC(CCn2cnc(N)c3nc(Sc4cc5c(cc4Br)OCCO5)nc2-3)CC1 [compound 93, l-[4-(2-{6-Amino-8-[(7-bromo-2,3-dihydro-1,4-benzodioxin-6-yl)thio]-3H-purin-3-yl}ethyl)piperidin-1-yl]-2-methyl-1-oxopropan-2-ol] | 53.0
5 | COc1ccc(Br)c(Sc2nc3c(N)ncn(CCC4CCN(C(=O)CO)CC4)c-3n2)c1 [compound 94, 2-[4-(2-{6-Amino-8-[(2-bromo-5-methoxyphenyl)thio]-3H-purin-3-yl}ethyl)piperidin-1-yl]-2-oxoethanol] | 10.0
6 | C[C@H](O)C(=O)N1CCC(CCn2cnc(N)c3nc(Sc4cc5c(cc4C#N)OCO5)nc2-3)CC1 [compound 96, 6-{[6-Amino-3-(2-{1-[(2S)-2-hydroxypropanoyl]piperidin-4-yl}ethyl)-3H-purin-8-yl]thio}-1,3-benzodioxole-5-carbonitrile] | 13.0
7 | C[C@H](O)C(=O)N1CCC(CCn2cnc(N)c3nc(Sc4cc5c(cc4C#N)OCCO5)nc2-3)CC1 [compound 100, 7-{[6-Amino-3-(2-{1-[(2S)-2-hydroxypropanoyl]piperidin-4-yl}ethyl)-3H-purin-8-yl]thio}-2,3-dihydro-1,4-benzodioxine-6-carbonitrile] | 27.0
8 | COc1ccc(OC(F)(F)F)c(Sc2nc3c(N)ncn(CCC4CCN(C(=O)CO)CC4)c-3n2)c1 [compound 103, 2-{4-[2-(6-Amino-8-{[5-methoxy-2-(trifluoromethoxy)phenyl]thio}-3H-purin-3-yl)ethyl]piperidin-1-yl}-2-oxoethanol] | 18.0
9 | COc1ccc(C#N)c(Sc2nc3c(N)ncn(CCC4CCN(C(=O)CO)CC4)c-3n2)c1 [compound 105, 2-({6-Amino-3-[2-(1-glycoloylpiperidin-4-yl)ethyl]-3H-purin-8-yl}thio)-4-methoxybenzonitrile] | 17.0
10 | CC(C)(C)[C@H](O)C(=O)N1CCC(CCn2cnc(N)c3nc(Sc4cc5c(cc4Br)OCCO5)nc2-3)CC1 [compound 107, (2S)-1-[4-(2-{6-Amino-8-[(7-bromo-2,3-dihydro-1,4-benzodioxin-6-yl)thio]-3H-purin-3-yl}ethyl)piperidin-1-yl]-3,3-dimethyl-1-oxobutan-2-ol] | 59.0
11 | C[C@H](O)C(=O)N1CCC(CCn2cnc(N)c3nc(Sc4cc5c(cc4Br)CCC5)nc2-3)CC1 [compound 109, (S)-1-(4-{2-[6-Amino-8-(6-bromo-indan-5-ylsulfanyl)-purin-3-yl]-ethyl}-piperidin-1-yl)-2-hydroxy-propan-1-one] | 58.0
12 | CCc1ccc(Br)c(Sc2nc3c(N)ncn(CCC4CCN(C(=O)[C@H](C)O)CC4)c-3n2)c1 [compound 112, (2S)-1-[4-(2-{6-Amino-8-[(2-bromo-5-ethylphenyl)thio]-3H-purin-3-yl}ethyl)piperidin-1-yl]-1-oxopropan-2-ol] | 13.0
13 | C[C@H](NC(=O)OC(C)(C)C)C(=O)N1CCCC(Cn2cnc(N)c3nc(Sc4nc5cccc(Cl)c5s4)nc2-3)C1 (stereo partly drawn) [compound 116, tert-Butyl {(1S)-2-[3-({6-amino-8-[(7-chloro-1,3-benzothiazol-2-yl)thio]-3H-purin-3-yl}methyl)piperidin-1-yl]-1-methyl-2-oxoethyl}carbamate] | 15.0
14 | COc1cc(OC)c(Cl)c(Sc2nc3c(N)ncn(CC4CCCN(C(=O)[C@H](C)NC(=O)OC(C)(C)C)C4)c-3n2)c1 (stereo partly drawn) [compound 118, tert-Butyl {(1S)-2[3-({6-amino-8-[(2-chloro-3,5-dimethoxyphenyl)thio]-3H-purin-3-yl}methyl)piperidin-1-yl]-1-methyl-2-oxoethyl}carbamate] | 12.0

Same assay, conditions: BODIPY-GM 10 nM, Hsp90 30 nM, overnight at room temperature; read-out: GM displacement from purified Hsp90 measured by FP IC 50

Row | Structure (SMILES) | IC50 [nM]
15 | Nc1ncnc2c1nc(Sc1cc3c(cc1Br)CCC3)n2CCC1CCN(C=O)CC1 [compound 84] | 20
16 | Nc1ncnc2c1nc(Sc1cc3c(cc1Br)C(=O)CC3)n2CCC1CCN(C=O)CC1 [compound 86, 4-(2{6-Amino-8-[(6-bromo-l-oxo-2,3-dihydro-1H-inden-5-yl)thio]-9H-purin-9-yl}ethyl)piperidine-1-carbaldehyde] | 60
17 | C[C@H](O)C(=O)N1CCC(CCn2c(Sc3cc4c(cc3Br)OCCO4)nc3c(N)ncnc32)CC1 [compound 88, (2S)-1-[4-(2-{6-Amino-8-[(7-bromo-2,3-dihydro-1,4-benzodioxin-6-yl)thio]-9H-purin-9-yl}ethyl)piperidin-1-yl]-1-oxopropan-2-ol] | 80
18 | Nc1ncnc2c1nc(Sc1cc3c(cc1Br)OCCO3)n2CCC1CCN(C(=O)CO)CC1 [compound 90, 2-[4-(2-{6-Amino-8-[(7-bromo-2,3-dihydro-1,4-benzodioxin-6-yl)thio]-9H-purin-9-yl}ethyl)piperidin-1-yl]-2-oxoethanol] | 90
19 | CC(C)(O)C(=O)N1CCC(CCn2c(Sc3cc4c(cc3Br)OCCO4)nc3c(N)ncnc32)CC1 [compound 92, 1-[4-(2-{6-Amino-8-[(7-bromo-2,3-dihydro-1,4-benzodioxin-6-yl)thio]-9H-purin-9-yl}ethyl)piperidin-1-yl]-2-methyl-1-oxopropan-2-ol] | 90
20 | C[C@H](O)C(=O)N1CCC(CCn2c(Sc3cc4c(cc3C#N)OCO4)nc3c(N)ncnc32)CC1 [compound 95, 6-{[6-Amino-9-(2-{1-[(2S)-2-hydroxypropanoyl]piperidin-4-yl}ethyl)-9H-purin-8-yl]thio}-l,3-benzodioxole-5-carbonitrile] | 700
21 | N#Cc1cc2c(cc1Sc1nc3c(N)ncnc3n1CCC1CCN(C(=O)CO)CC1)OCO2 [compound 97, 6-({6-Amino-9-[2-(1-glycoloylpiperidin-4-yl)ethyl]-9H-purin-8-yl}thio)-1,3-benzodioxole-5-carbonitrile] | 350
22 | C[C@H](O)C(=O)N1CCC(CCn2c(Sc3cc4c(cc3C#N)OCCO4)nc3c(N)ncnc32)CC1 [compound 99, 7-{[6-Amino-9-(2-{1-[(2S)-2-hydroxypropanoyl]piperidin-4-yl}ethyl)-9H-purin-8-yl]thio}-2,3-dihydro-1,4-benzodioxine-6-carbonitrile] | 490
23 | N#Cc1cc2c(cc1Sc1nc3c(N)ncnc3n1CCC1CCN(C(=O)CO)CC1)OCCO2 [compound 101, 7-({6-Amino-9-[2-(1-glycoloylpiperidin-4-yl)ethyl]-9H-purin-8-yl}thio)-2,3-dihydro-1,4-benzodioxine-6-carbonitrile] | 200
24 | COc1ccc(OC(F)(F)F)c(Sc2nc3c(N)ncnc3n2CCC2CCN(C(=O)CO)CC2)c1 [compound 102, 2-{4-[2-(6-Amino-8-{[5-methoxy-2-(trifluoromethoxy)phenyl]thio}-9H-purin-9-yl)ethyl]piperidin-1-yl}-2-oxoethanol] | 280
25 | COc1ccc(C#N)c(Sc2nc3c(N)ncnc3n2CCC2CCN(C(=O)CO)CC2)c1 [compound 104, 2-({6-Amino-9-[2-(1-glycoloylpiperidin-4-yl)ethyl]-9H-purin-8-yl}thio)-4-methoxybenzonitrile] | 800
26 | CC(C)(C)[C@H](O)C(=O)N1CCC(CCn2c(Sc3cc4c(cc3Br)OCCO4)nc3c(N)ncnc32)CC1 [compound 106, (2S)-1-[4-(2-{6-Amino-8-[(7-bromo-2,3-dihydro-1,4-benzodioxin-6-yl)thio]-9H-purin-9-yl}ethyl)piperidin-1-yl]-3,3-dimethyl-1-oxobutan-2-ol] | 70
27 | C[C@H](O)C(=O)N1CCC(CCn2c(Sc3cc4c(cc3Br)CCC4)nc3c(N)ncnc32)CC1 [compound 108, (S)-1-(4-{2-[6-Amino-8-(6-bromo-indan-5-ylsuIfanyl)-purin-9-yl]-ethyl}-piperidin-1-yl)-2-hydroxy-propan-1-one] | 160
28 | C[C@@H](O)C(=O)N1CCC(CCn2c(Sc3cc4c(cc3Br)OCCO4)nc3c(N)ncnc32)CC1 [compound 113, (2R)-1-[4-(2-{6-Amino-8-[(7-bromo-2,3-dihydro-1,4-benzodioxin-6-yl)thio]-9H-purin-9-yl}ethyl)piperidin-1-yl]-1-oxopropan-2-ol] | 72
29 | C[C@@H](NC(=O)OC(C)(C)C)C(=O)N1CCC(Cn2c(Sc3cc4c(cc3Br)OCCO4)nc3c(N)ncnc32)CC1 [compound 120, tert-Butyl {(1R)-2-[4-({6-amino-8-[(7-bromo-2,3-dihydro-1,4-benzodioxin-6-yl)thio]-9H-purin-9-yl}methyl)piperidin-1-yl]-1-methyl-2-oxoethyl}carbamate] | 400
30 | COc1cc(OC)c(Cl)c(Sc2nc3c(N)ncnc3n2CC2CCCN(C(=O)[C@H](C)N)C2)c1 (stereo partly drawn) [compound 123, 9-({1-[(2S)-2-Aminopropanoyl]piperidin-3-yl}methyl)-8-[(2-chloro-3,5-dimethoxyphenyl)thio]-9H-purin-6-amine] | 3800
